The values below come from the SangsterLogP compilation.

One series can be described thus: method code SF, from Hansch, C. & Leo, A. (1987). Log P database [Dataset]. Pomona College Medicinal Chemistry Project.
Conditions: not given
For orientation: logP means a log measure of how a compound divides between an organic and an aqueous phase. A lower logP goes with lower lipophilicity. Regarding `CC(=O)Oc1cccc([N+](=O)[O-])c1`, the logP stood at 1.82.

In turn, `COc1cc(S(C)=O)ccc1-c1cn2ccnc(OC)c2n1` (stereo unspecified) showed a logP of 1.49.

`NNC(=O)NN=Cc1ccccc1` gave a log partition coefficient (logP) of 0.81.

`Cc1nn(-c2ccccc2)c(C)c1N=O` displayed a logP of 2.28.

`O=S1(=O)NC(c2cccs2)=Nc2ccccc21`: the log partition coefficient (logP) was 1.68.

`Cc1ccsc1` showed a logP of 2.34.

In the case of `NC(=O)c1ccc(C(O)C(CO)NC(=O)C(Cl)Cl)cc1` (stereo unspecified), the lipophilicity (logP) was -0.48.

For the molecule `COc1ccc2[nH]c(CCc3nc4cc(OC)ccc4[nH]3)nc2c1`, the log partition coefficient (logP) stood at 1.14.

With `C=CCN(C)/N=N/c1ccc(C(N)=O)cc1`, the log partition coefficient (logP) was 2.09.

`CC(=O)Nc1cccc(/N=N/N(C)C)c1` displayed a lipophilicity (logP) of 1.61.

In the case of `Nc1ccc2cc3ccccc3nc2c1`, the log partition coefficient (logP) came to 2.19.

`OC(O)C(Cl)(Cl)Cl`: the logP was 0.99.

In turn, `c1cscn1` had a lipophilicity (logP) of 0.44.

In the case of `CCCCCc1ccc(O)cc1`, the logP amounted to 4.06.

Take `NC1=NC(C(F)(F)F)(C(F)(F)F)NC1(C(F)(F)F)C(F)(F)F`: the lipophilicity (logP) is 3.35.

In turn, `CCc1ccc(OC(C)=O)cc1` displayed a lipophilicity (logP) of 2.56.

`CNP(=O)(OC)Oc1ccc(OC)cc1` (stereo unspecified) came in with a log partition coefficient (logP) of 1.06.

With `CCC(C)NC(=O)C=C(Cl)c1ccc(Cl)cc1` (stereo unspecified), the logP turned out to be 3.61.

`CCCc1ccc2c(c1)C(=O)c1ccc(NC(C)=O)cc1S2(=O)=O` came in with a log partition coefficient (logP) of 3.51.

For `c1cnc2ncncc2n1`, the logP is -0.58.

With `Cn1c(=O)c(=O)n(C)c2ccccc21`, the log partition coefficient (logP) came out at 0.08.

As to `CN(C)C(=O)Nc1ccc(OCc2ccc(Cl)cc2Cl)cc1`, the logP was determined as 4.1.

As for `CC(=O)C(C)=O`, the lipophilicity (logP) is -1.34.

Molecule `CC(=O)c1ccc[nH]1` showed a log partition coefficient (logP) of 0.93.

On to `O=S(=O)(N=[N+]([O-])c1ccccc1)c1ccccc1`, for which the logP is 2.33.

`COC(=O)c1cccc(O)c1`: the logP came out at 1.89.

In turn, `CN(c1ccccc1)S(C)(=O)=O` came in with a log partition coefficient (logP) of 1.02.

`CN(C)C(=O)/C=C/c1ccccc1` showed a log partition coefficient (logP) of 1.73.

`O=S1(=O)NC(C2CCCCC2)=Nc2ccccc21` displayed a log partition coefficient (logP) of 2.2.

As for `O=C(c1ccncc1)c1ccccc1O`, the logP worked out at 2.13.

In the case of `CCOC(=O)C(=Cc1ccccc1Cl)C(=O)OCC`, the logP is 3.15.

Turning to `O=C(O)COc1ccc(S(=O)(=O)F)cc1`, the logP was 1.82.

With `CC1=NCCN1CCO`, the logP was found to be 0.04.

In turn, `CCC(=O)OCC(=O)[C@@]1(OC(=O)CC)[C@H](C)C[C@H]2[C@@H]3C[C@H](F)C4=CC(=O)C(Cl)=C[C@]4(C)[C@@]3(F)[C@@H](O)C[C@@]21C` had a lipophilicity (logP) of 4.22.

`OC(c1nc2ccccc2[nH]1)C(O)c1nc2ccccc2[nH]1` (stereo unspecified): the logP stood at 1.14.

Turning to `O=Cc1cccc(C(F)(F)F)c1`, the logP is 2.47.

Turning to `CN(C=O)c1ccc(S(=O)(=O)N(C)C)cc1`, the log partition coefficient (logP) stood at 0.4.

`Cc1oc2ccccc2c(=O)c1C` gave a logP of 2.31.

`COc1cc(C=O)ccc1OCCOC(=O)c1ccccc1Cl` showed a lipophilicity (logP) of 3.21.

`Cc1ccncc1` displayed a logP of 1.22.

As to `O=[N+]([O-])c1ccc(C=Cc2nccn2Cc2ccncc2)o1`, the logP is 1.67.

In the case of `O=C(O)Cc1c[nH]c2ccccc12`, the lipophilicity (logP) is 1.41.

`COC(=O)Cc1cccs1` yielded a lipophilicity (logP) of 1.51. The logP values of the last two molecules are within 0.2 log units of each other.

`c1cnc2[nH]ccc2c1` yielded a logP of 1.82.

Turning to `CC(C)CO`, the logP was determined as 0.65.

On to `Cc1ccoc1CN(C)C`, for which the logP was determined as 1.63.

In turn, `CN(C)CCCN1c2ccccc2Sc2ccc(S(C)(=O)=O)cc21` came in with a logP of 3.5.

Consider `CC(=O)C(=Cc1ccccc1)C(C)=O`, for which the logP is 1.59.

For `CN(C)C(=O)c1ccsc1`, the log partition coefficient (logP) was 0.55.

On to `CN(C)c1ccc(C(N)=O)cc1`, for which the logP stood at 1.14.

Consider `C=C(C)CC1(CC)C(=O)NC(=S)NC1=O`, for which the logP stood at 2.19.

`CC1CCCN(N=O)C1=O` (stereo unspecified): the logP is -0.66.

As to `O=[N+]([O-])c1ccc2[nH]c(CCCCCCc3nc4cc([N+](=O)[O-])ccc4[nH]3)nc2c1`, the logP came to 1.51.

The molecule `COCC1=Nc2cc(Cl)ccc2S(=O)(=O)N1` displayed a logP of 1.12.

Take `O=[N+]([O-])c1ccc2[nH]c(C(O)C(O)c3nc4cc([N+](=O)[O-])ccc4[nH]3)nc2c1` (stereo unspecified): the logP was 1.45.

For `O=[N+]([O-])c1ccc2[nH]ccc2c1`, the logP amounted to 2.53.

Turning to `CC1(C)O[C@@H]2C[C@H]3[C@@H]4CCC5=CC(=O)C=C[C@]5(C)[C@@]4(F)[C@@H](O)C[C@]3(C)[C@]2(C(=O)CO)O1`, the logP came to 2.53.

In turn, `CC(=NNC(=S)N(C)C)c1cc(C)ccc1O` came in with a logP of 2.26.

`CC(C)CCO[N+](=O)[O-]` had a logP of 2.84.

Molecule `OC(c1ccccc1)(C(F)(F)F)C(F)(F)F` showed a logP of 3.41.

As to `COC(=O)CNC(=O)c1ccccc1`, the lipophilicity (logP) turned out to be 0.82.

Turning to `NC1=Nc2cc(Cl)ccc2S(=O)(=O)N1`, the logP is 0.91.

With `CNP(=O)(OC)Oc1ccc(C(C)(C)C)cc1Cl` (stereo unspecified), the lipophilicity (logP) was 3.42.

On to `COc1ccc2c(=O)c(C)c(C(C)C)oc2c1`, for which the lipophilicity (logP) was 3.39.

Take `O=C1C(NCCO)=C(N2CC2)C(=O)C(NCCO)=C1N1CC1`: the logP was -1.48.

`O=[N+]([O-])c1ccc2ncccc2c1`: the log partition coefficient (logP) turned out to be 1.84.

`CCOCCOC(=O)C(C#N)=C(CC)Nc1ccc([N+](=O)[O-])cc1` registered a logP of 2.6.

Consider `CCOC(=O)/C(=C/c1cccc(F)c1)C(C)=O`, for which the logP worked out at 2.46.

Molecule `CC(=O)C(=Cc1ccc(C)cc1)C(C)=O` showed a lipophilicity (logP) of 2.14.

On to `CC1CCC(O)CC1` (stereo unspecified), for which the logP stood at 1.79.

`CCCCC1=Nc2ccc(Cl)cc2S(=O)(=O)N1` yielded a logP of 2.52.

As for `CC(=O)OC1OC(C)C(OC(C)=O)C(OC(C)=O)C1NC(=O)N(CCCl)N=O` (stereo unspecified), the lipophilicity (logP) worked out at 1.32.

As to `N#CCc1ccsc1`, the logP came to 1.26. The logP values of the last two molecules are within 0.2 log units of each other.

Consider `CC(=O)Oc1cccc(Cl)c1`, for which the logP came to 2.32.

On to `CNC(C)=O`, for which the logP was -1.05.

`O=C(O)c1ccsc1` yielded a logP of 1.5.

`CN(C)/N=N/c1cccc(Cl)c1` displayed a log partition coefficient (logP) of 3.44.

In the case of `CCC1=Nc2ccc(Cl)cc2S(=O)(=O)N1`, the logP was found to be 1.62.

`O=C(Nc1ccccc1)c1cccnc1`: the logP was 1.73. The logP values of the last two molecules are within 0.2 log units of each other.

As for `CCOC(CP(=O)(OCC)OCC)OCC`, the logP was 0.69.

On to `CCc1cnc(C=Cc2ccc([N+](=O)[O-])o2)nc1`, for which the logP amounted to 1.55.

In turn, `Cc1cccc2cccnc12` displayed a logP of 2.6.

Regarding `CN(C)/N=N/c1ccccc1C(=O)NCC#N`, the lipophilicity (logP) was 1.79.

Molecule `CC1CCCC1` returned a logP of 3.37.

In turn, `c1ccc(-n2cccn2)cc1` had a logP of 2.2.

`CCC(C)c1cnc(CC(C)C)c(=O)n1O` (stereo unspecified): the log partition coefficient (logP) came to 1.81.

Consider `COc1cc(/C=N/O)ccc1OCCOC(=O)c1ccc(Cl)cc1`, for which the logP was determined as 3.92.

In the case of `CO[C@@H]1O[C@H](COC(C)=O)[C@@H](OC(C)=O)[C@H](NC(=O)N(CCCl)N=O)[C@H]1OC(C)=O`, the logP was determined as 0.67.

On to `O=C1C(NCC(O)CO)=C(N2CC2)C(=O)C(NCC(O)CO)=C1N1CC1` (stereo unspecified), for which the logP is -1.97.

The molecule `CC(C)(O)C(F)(F)F` registered a logP of 1.04.

With `CC(=O)Nc1ccc(OC(C)=O)cc1`, the logP stood at 0.8.

Consider `CS(=O)(=O)Oc1ccccc1`, for which the logP turned out to be 1.25.

In turn, `CCOc1ccccc1OC` returned a log partition coefficient (logP) of 1.73.

In turn, `N#CN=[N+]([O-])c1ccc(Cl)cc1` showed a logP of 2.33.

Turning to `OCC(F)(F)C(F)(F)C(F)(F)F`, the logP stood at 1.81.

In turn, `COC(=O)C(=Cc1ccccc1)C(=O)OC` came in with a logP of 2.24.

Regarding `CCOC(=O)CON=Cc1ccc(OCCOC(=O)c2cc(OC)c(OC)c(OC)c2)c(OC)c1`, the logP worked out at 3.26.

The molecule `O=C(COc1ccccc1)N1CCCCC1` yielded a logP of 1.81.

Consider `O=C1NC(c2cccc3ccccc23)Nc2ccccc21` (stereo unspecified), for which the logP was 2.96.

The molecule `CCS(=O)(=O)c1ccc(S(N)(=O)=O)c2ccccc12` returned a logP of 1.24.

Molecule `O=C(Cc1ccccc1)c1ccccc1` gave a logP of 3.18.

`c1ccc(OCCOc2ccccc2)cc1`: the logP was determined as 3.81.

The series is the same for the next values; noted with them: pH 1.0.
Usually logD stands for the decadic logarithm of the distribution of all forms, ionised or not, between an organic phase and buffer at a given pH. `O=C(O)c1cccc([N+](=O)[O-])c1C(=O)O` displayed a log distribution coefficient (logD) of 0.75.

The same series, now with this note: pH 1.4.
On to `Oc1c(Br)cc(Br)c(O)c1Br`, for which the pH-dependent lipophilicity (logD) amounted to 4.37.

The series is the same for the next values; noted with them: pH 2.0.
Molecule `CCCCc1ccc(C(=O)O)nc1` gave a logD of 0.68.

The molecule `CN(C)/N=N/c1ccccc1I` came in with a logD of 3.5.

In the case of `CCC1(CC2COc3ccccc3O2)C(=O)NC(=O)NC1=O` (stereo unspecified), the pH-dependent lipophilicity (logD) turned out to be 1.85.

The series is the same for the next values; noted with them: pH 5.0.
With `CC(C)c1cccc(O)c(=O)c1`, the log distribution coefficient (logD) was determined as 1.82.

The same series, now with this note: pH 7.0.
The molecule `CC(=O)c1ccc(N(C)C)cc1` had a logD of 2.1.

Consider `COc1cccc(C(C)=O)c1`, for which the pH-dependent lipophilicity (logD) amounted to 1.84.

`O=[N+]([O-])c1cccc(C(F)(F)F)c1` showed a log distribution coefficient (logD) of 2.62.

The series is the same for the next values; noted with them: pH 7.3.
`Nc1ncnc2nc(-c3cccc([N+](=O)[O-])c3)[nH]c12` showed a log distribution coefficient (logD) of 1.93.

Staying with this series, now noted: pH 7.4.
For `CSc1ccccc1/N=N/N(C)C`, the pH-dependent lipophilicity (logD) amounted to 3.13.

With `Cc1c(NCC(C)C)c(=O)n(-c2ccccc2)c(=O)n1C`, the log distribution coefficient (logD) is 1.48.

Take `CCN(CC)c1c(C)n(CC)c(=O)n(-c2ccccc2)c1=O`: the pH-dependent lipophilicity (logD) was 2.2.

As for `Cc1c(N2CCCCC2)c(=O)n(-c2ccccc2)c(=O)n1C`, the logD came to 2.76.

`Cc1[nH]c(=O)[nH]c(=O)c1N(CCF)CCCl` came in with a logD of 0.85.

As for `Cc1c(N2CCOCC2)c(=O)n(-c2ccccc2)c(=O)n1C`, the log distribution coefficient (logD) was determined as 0.69.

The series is the same for the next values; noted with them: pH 8.0.
The molecule `COc1cc(S(C)=O)ccc1-c1nc2ccccc2[nH]1` (stereo unspecified) gave a log distribution coefficient (logD) of 1.17.

The series is the same for the next values; noted with them: pH 11.0.
Molecule `c1cncc(CN2CCOCC2)c1` had a logD of 0.04.

The series is the same for the next values; noted with them: pH 12.0.
In turn, `CN(C)/N=N/c1ccccc1CO` gave a logD of 1.73.

Still in this series, the particulars now being: pH 13.0.
In turn, `CCN(CC)CC(O)c1ccccc1` (stereo unspecified) yielded a logD of 2.02.

As for `CC1(C)N=C(N)N=C(N)N1c1ccccc1`, the pH-dependent lipophilicity (logD) is 0.28.

The molecule `CN(c1ccccc1)c1ccccc1` yielded a logD of 3.9.

The molecule `CS(=O)(=O)Oc1ccccc1Cc1cnc(N)nc1N` yielded a log distribution coefficient (logD) of 0.71.

The molecule `COc1ccc(N2C(N)=NC(N)=NC2(C)C)cc1` registered a logD of 0.4.
